The source of these data is ChEMBL document CHEMBL1201862, “PubChem BioAssay data set” (2004).

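Method: 48-hour compound exposure of cells in 96-well plates, five concentrations, linear interpolation of endpoints. At the GI50, growth is halved.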 Calls of active or inactive are those of the source. No stated cut-off is given here; in the data, active = GI50 up to about 1.1 µM and inactive = higher. A value given as a limit tells only on which side of the number the result lay.

Holding throughout (test): growth of human tumour cells (NCI), 48 h
For assay [1], the system named is UACC-62.
Assay [2] concerns SK-MEL-2.
Assay [3] deals with DMS-273.
The subject of assay [4] is KM12.
Assay [5] concerns MOLT-4.
In assay [6] the test system is HCT-15.
For assay [7], the system named is K562.
In assay [8] the test system is SK-MEL-5.
Assay [9] relates to LOX IMVI.
The subject of assay [10] is UO-31.
For assay [11], the system named is OVCAR-3.
Assay [12] concerns OVCAR-4.
The subject of assay [13] is HCC 2998.
In assay [14] the test system is M19-MEL.
Assay [15] relates to SW-620.
Assay [16] relates to COLO 205.
The test system of assay [17] is KM-20L2.
The subject of assay [18] is HOP-62.
Assay [19] has as its system RXF 393.
Assay [20] deals with IGROV-1.

Regarding `CNC(=O)CN1CC(=O)N(C)C(=O)C1`, the GI50 was > 100 µM (inactive) in assay [1]; > 100 µM (inactive) in assay [2]; > 100 µM (inactive) in [3]; > 100 µM (inactive) in assay [4]; > 100 µM (inactive) in assay [5]; greater than 100 µM in assay [6]. Also, the GI50 in assay [7], in [8], in assay [9], in [10], in assay [11] and in assay [12] was > 100 µM (inactive) each time. For the same compound, the GI50 in assay [13], in assay [14], in assay [15], in assay [16], in [17] and in assay [18] was > 100 µM (inactive) throughout. In addition, the GI50 in [19] and in assay [20] was > 100 µM (inactive) throughout.

With `COc1ccc(Oc2ccccc2N)cc1`, the GI50 in [1] is 19.3 µM (inactive); in assay [2], 57 µM (inactive); in assay [3] it was 29.5 µM (inactive); in assay [4], 20.9 µM (inactive); in assay [5] it was 18 µM (inactive); in [6], 9.51 µM. The GI50 in [7] was 29.5 µM (inactive); in assay [8] it was 13.2 µM (inactive); in assay [9], 81.1 µM (inactive); in [10] it was 26.5 µM (inactive); in assay [11] it was 26.4 µM (inactive); in assay [12] it was 57.3 µM (inactive). The GI50 is 20.8 µM (inactive) in [13]; 50.2 µM (inactive) in assay [14]; 59 µM (inactive) in assay [15]; 16.6 µM (inactive) in assay [16]; 27.6 µM (inactive) in assay [17]; 35.2 µM (inactive) in [18]. Further, the values for the GI50 in assay [19] and in assay [20] were 19.8 µM (inactive) and 36.6 µM (inactive), respectively.

Turning to `Nc1cc(-c2ccccc2)nn1-c1nsc2ccccc12`, the GI50 is > 100 µM (inactive) in assay [1]; > 100 µM (inactive) in [2]; 80.7 µM (inactive) in assay [3]; > 100 µM (inactive) in [4]; 55.1 µM (inactive) in assay [5]; 95.3 µM in assay [6]. Further, the GI50 in assay [7] was 40.4 µM (inactive); in assay [8] it was > 100 µM (inactive); in assay [9], 97.5 µM (inactive); in assay [10], > 100 µM (inactive); in assay [11], 94.2 µM (inactive); in assay [12] it was > 100 µM (inactive). The GI50 was > 100 µM (inactive) in [13]; > 100 µM (inactive) in assay [14]; > 100 µM (inactive) in assay [15]; > 100 µM (inactive) in [16]; > 100 µM (inactive) in assay [17]; 36.3 µM (inactive) in [18]. In addition, the GI50 was 14.4 µM (inactive) in assay [19] and 83.9 µM (inactive) in assay [20].

Take `CC1(C)Cc2c(C#N)c(N)c3c(c2CO1)C(=O)OC3=O`: the GI50 is > 100 µM (inactive) in assay [1]; > 100 µM (inactive) in assay [2]; > 100 µM (inactive) in assay [3]; > 100 µM (inactive) in assay [4]; > 100 µM (inactive) in assay [5]; greater than 100 µM in assay [6]. For the same compound, the GI50 in assay [7], in [8], in assay [9], in [10], in assay [11] and in [12] was > 100 µM (inactive) throughout. Moreover, the GI50 in assay [13], in assay [14], in [15], in [16], in [17] and in assay [18] was > 100 µM (inactive) in each case. Further, the GI50 in [19] and in assay [20] was > 100 µM (inactive) in each case.

For the compound `CCC(=C(C#N)C#N)c1cc(OC)c(OC)c(OC)c1`, the GI50 in [1] is > 100 µM (inactive); in assay [2] it was > 100 µM (inactive); in assay [3] it was > 100 µM (inactive); in assay [4], > 100 µM (inactive); in [5], > 100 µM (inactive); in assay [6] it was greater than 100 µM. The GI50 in [7], in assay [8], in [9], in assay [10], in assay [11] and in assay [12] was > 100 µM (inactive) throughout. Also, the GI50 in [13], in assay [14], in assay [15], in [16], in [17] and in assay [18] was > 100 µM (inactive) throughout. Also, the GI50 in assay [19] and in [20] was > 100 µM (inactive) each time.

For `O=C(O)CCC(NC(=O)c1ccc(Nc2nc3cc(C(F)(F)F)ccc3nc2-c2ccccc2)cc1)C(=O)O` (stereo not given), the GI50 is > 60.1 µM (inactive) in [1]; > 100 µM (inactive) in assay [2]; 24.6 µM (inactive) in assay [3]; 45.9 µM (inactive) in assay [4]; 44.6 µM (inactive) in assay [5]; 60.3 µM in [6]. The GI50 in [7] was 34.4 µM (inactive); in [8], > 100 µM (inactive); in assay [9], 44.9 µM (inactive); in assay [10], > 94.6 µM (inactive); in [11], > 100 µM (inactive); in assay [12] it was 31.3 µM (inactive). Besides, the GI50 was 66.5 µM (inactive) in assay [13]; > 100 µM (inactive) in [14]; 68.1 µM (inactive) in [15]; > 55.7 µM (inactive) in [16]; 24.3 µM (inactive) in assay [17]; > 74.6 µM (inactive) in assay [18]. Also, the GI50 in assay [19] is 26.5 µM (inactive); in [20], > 100 µM (inactive).
